# From patent US20090036422A1 (priority 2007, published 2009)
# Structures can show the parent of a compound that is named as a salt.
# Target: T1, human orexin-2 (hOX2) receptor (Homo sapiens, UniProt O43614)
# T1 construct: expressed in transfected cells
# T1 sequence (O43614 1-444): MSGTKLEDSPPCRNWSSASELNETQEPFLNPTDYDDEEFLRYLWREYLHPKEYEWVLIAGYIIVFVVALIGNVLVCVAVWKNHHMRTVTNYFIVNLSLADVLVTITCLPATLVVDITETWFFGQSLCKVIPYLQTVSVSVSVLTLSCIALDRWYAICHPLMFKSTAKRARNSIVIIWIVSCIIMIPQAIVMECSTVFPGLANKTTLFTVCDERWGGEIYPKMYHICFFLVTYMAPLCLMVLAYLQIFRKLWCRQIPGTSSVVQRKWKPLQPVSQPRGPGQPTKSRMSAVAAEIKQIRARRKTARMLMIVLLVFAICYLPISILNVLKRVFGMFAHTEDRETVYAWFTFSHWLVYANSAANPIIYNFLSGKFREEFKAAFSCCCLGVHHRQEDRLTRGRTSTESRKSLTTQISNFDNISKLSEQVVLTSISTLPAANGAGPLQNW
# Assay: Intracellular Ca2+ mobilization assay (FLIPR), CHO(dHFr-) cells expressing hOX2, orexin-A at EC80 as agonist
# Assay type: cell-based
# Settings: Kb=IC50/(1+[A]/EC50); CHO(dHFr-)-OX2R cells, antagonist applied 25 min before orexin-A EC80
# Summary of the method: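 Fluo-4-loaded CHO(dHFr−) cells stably expressing hOX2 were preincubated 25 min at 37 °C with antagonist (11 concentrations, 0.0001–10 μM), then challenged with orexin-A at its daily-determined EC80. Peak fluorescence over basal read by FLIPR; IC50 from Hill fit, Kb via Kb=IC50/(1+[A]/EC50).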
row,Kb,SMILES
1,0.0496 µM,"Cc1ccc(N(CCc2cccc(Cl)c2)C(=O)[C@@H](N)c2ccccc2)cc1C [Example 183, (S)-2-Amino-N-[2-(3-chloro-phenyl)-ethyl]-N-(3,4-dimethyl-phenyl)-2-phenyl-acetamide hydrochloride]"
2,0.0249 µM,"Cc1ccc(N(CCc2cccc(C(F)(F)F)c2)C(=O)[C@@H](N)c2ccccc2)cc1C [Example 184, (S)-2-Amino-N-(3,4-dimethyl-phenyl)-2-phenyl-N-[2-(3-trifluoromethyl-phenyl)-ethyl]-acetamide hydrochloride]"
3,0.0305 µM,"Cc1ccc(N(CCc2ccccc2C)C(=O)[C@@H](N)c2ccccc2)cc1C [Example 185, (S)-2-Amino-N-(3,4-dimethyl-phenyl)-2-phenyl-N-(2-o-tolyl-ethyl)-acetamide hydrochloride]"
4,0.0156 µM,"Cc1ccc(N(CCc2ccc(C(F)(F)F)c(F)c2)C(=O)[C@@H](N)c2ccccc2)cc1C [Example 186, (S)-2-Amino-N-(3,4-dimethyl-phenyl)-N-[2-(3-fluoro-4-trifluoromethyl-phenyl)-ethyl]-2-phenyl-acetamide hydrochloride]"
5,0.0327 µM,"Cc1ccc(N(CCc2ccc(F)c(C(F)(F)F)c2)C(=O)[C@@H](N)c2ccccc2)cc1C [Example 187, (S)-2-Amino-N-(3,4-dimethyl-phenyl)-N-[2-(4-fluoro-3-trifluoromethyl-phenyl)-ethyl]-2-phenyl-acetamide hydrochloride]"
6,0.0269 µM,"Cc1ccc(N(CCc2ccc(F)cc2F)C(=O)[C@@H](N)c2ccccc2)cc1C [Example 188, (S)-2-Amino-N-[2-(2,4-difluoro-phenyl)-ethyl]-N-(3,4-dimethyl-phenyl)-2-phenyl-acetamide hydrochloride]"
7,0.0071 µM,"Cc1ccc(N(CCc2ccc(F)c(F)c2)C(=O)[C@@H](N)c2ccccc2)cc1C [Example 189, (S)-2-Amino-N-[2-(3,4-difluoro-phenyl)-ethyl]-N-(3,4-dimethyl-phenyl)-2-phenyl-acetamide hydrochloride]"
8,0.0091 µM,"Cc1ccc(N(CCc2ccc(C)c(F)c2)C(=O)[C@@H](N)c2ccccc2)cc1C [Example 190, (S)-2-Amino-N-(3,4-dimethyl-phenyl)-N-[2-(3-fluoro-4-methyl-phenyl)-ethyl]-2-phenyl-acetamide hydrochloride]"
9,0.0215 µM,"Cc1ccc(N(CCc2cccc(F)c2F)C(=O)[C@@H](N)c2ccccc2)cc1C [Example 191, (S)-2-Amino-N-[2-(2,3-difluoro-phenyl)-ethyl]-N-(3,4-dimethyl-phenyl)-2-phenyl-acetamide hydrochloride]"
10,0.0148 µM,"Cc1ccc(N(CCc2ccc(Cl)cc2F)C(=O)[C@@H](N)c2ccccc2)cc1C [Example 192, (S)-2-Amino-N-[2-(4-chloro-2-fluoro-phenyl)-ethyl]-N-(3,4-dimethyl-phenyl)-2-phenyl-acetamide; hydrochloride]"
11,0.016 µM,"Cc1ccc(N(CCc2cc(C(F)(F)F)ccc2F)C(=O)[C@@H](N)c2ccccc2)cc1C [Example 193, (S)-2-Amino-N-(3,4-dimethyl-phenyl)-N-[2-(2-fluoro-5-trifluoromethyl-phenyl)-ethyl]-2-phenyl-acetamide; hydrochloride]"
12,0.0052 µM,"COc1ccccc1CCN(C(=O)[C@@H](N)c1ccccc1)c1ccc(C)c(C)c1 [Example 194, (S)-2-Amino-N-(3,4-dimethyl-phenyl)-N-[2-(2-methoxy-phenyl)-ethyl]-2-phenyl-acetamide hydrochloride]"
13,0.0176 µM,"Cc1ccc(N(CCc2cccc(C(F)(F)F)c2F)C(=O)[C@@H](N)c2ccccc2)cc1C [Example 195, (S)-2-Amino-N-(3,4-dimethyl-phenyl)-N-[2-(2-fluoro-3-trifluoromethyl-phenyl)-ethyl]-2-phenyl-acetamide hydrochloride]"
14,0.0171 µM,"Cc1ccc(N(CCc2ccc(C(F)(F)F)cc2F)C(=O)[C@@H](N)c2ccccc2)cc1C [Example 196, (S)-2-Amino-N-(3,4-dimethyl-phenyl)-N-[2-(2-fluoro-4-trifluoromethyl-phenyl)-ethyl]-2-phenyl-acetamide hydrochloride]"
15,0.0067 µM,"Cc1ccc(N(CCc2ccc(C(F)(F)F)c(F)c2F)C(=O)[C@@H](N)c2ccccc2)cc1C [Example 197, (S)-2-Amino-N-[2-(2,3-difluoro-4-trifluoromethyl-phenyl)-ethyl]-N-(3,4-dimethyl-phenyl)-2-phenyl-acetamide hydrochloride]"
16,0.0489 µM,"Cc1ccc(N(CCc2ccccc2)C(=O)[C@@H](N)c2ccccc2)cc1C [Example 199, (S)-2-Amino-N-(3,4-dimethyl-phenyl)-N-phenethyl-2-phenyl-acetamide hydrochloride]"
17,0.0143 µM,"Cc1ccc(N(CCc2ccc(Cl)c(F)c2)C(=O)[C@@H](N)c2ccccc2)cc1C [Example 200, (S)-2-Amino-N-[2-(4-chloro-3-fluoro-phenyl)-ethyl]-N-(3,4-dimethyl-phenyl)-2-phenyl-acetamide hydrochloride]"
18,0.247 µM,"Cc1ccc(N(CCc2cc(F)cc(C(F)(F)F)c2)C(=O)[C@@H](N)c2ccccc2)cc1C [Example 201, (S)-2-Amino-N-(3,4-dimethyl-phenyl)-N-[2-(3-fluoro-5-trifluoromethyl-phenyl)-ethyl]-2-phenyl-acetamide hydrochloride]"
19,0.0015 µM,"Cc1ccc(N(CCc2c(F)cc(C(F)(F)F)c(F)c2F)C(=O)[C@@H](N)c2ccccc2)cc1C [Example 202, (S)-2-Amino-N-(3,4-dimethyl-phenyl)-2-phenyl-N-[2-(2,3,6-trifluoro-4-trifluoromethyl-phenyl)-ethyl]-acetamide hydrochloride]"
20,0.0996 µM,"Cc1ccc(N(CCc2cc(Cl)ccc2Cl)C(=O)[C@@H](N)c2ccccc2)cc1C [Example 203, (S)-2-Amino-N-[2-(2,5-dichloro-phenyl)-ethyl]-N-(3,4-dimethyl-phenyl)-2-phenyl-acetamide hydrochloride]"
21,0.0178 µM,"Cc1ccc(N(CCc2cccc(Cl)c2F)C(=O)[C@@H](N)c2ccccc2)cc1C [Example 204, (S)-2-Amino-N-[2-(3-chloro-2-fluoro-phenyl)-ethyl]-N-(3,4-dimethyl-phenyl)-2-phenyl-acetamide hydrochloride]"
22,0.0829 µM,"Cc1ccc(N(CCc2ccc(Cl)cc2Cl)C(=O)[C@@H](N)c2ccccc2)cc1C [Example 205, (S)-2-Amino-N-[2-(2,4-dichloro-phenyl)-ethyl]-N-(3,4-dimethyl-phenyl)-2-phenyl-acetamide hydrochloride]"
23,0.0469 µM,"Cc1ccc(N(CCc2cccc(O)c2)C(=O)[C@@H](N)c2ccccc2)cc1C [Example 206, (S)-2-Amino-N-(3,4-dimethyl-phenyl)-N-[2-(3-hydroxy-phenyl)-ethyl]-2-phenyl-acetamide hydrochloride]"
24,0.0231 µM,"Cc1ccc(N(CCc2cc(F)cc(F)c2)C(=O)[C@@H](N)c2ccccc2)cc1C [Example 208, (S)-2-Amino-N-[2-(3,5-difluoro-phenyl)-ethyl]-N-(3,4-dimethyl-phenyl)-2-phenyl-acetamide hydrochloride]"
25,0.0486 µM,"Cc1ccc(N(CCc2cc(F)cc(Cl)c2)C(=O)[C@@H](N)c2ccccc2)cc1C [Example 209, (S)-2-Amino-N-[2-(3-chloro-5-fluoro-phenyl)-ethyl]-N-(3,4-dimethyl-phenyl)-2-phenyl-acetamide hydrochloride]"
